Where a name gives a salt, the structure may show the parent alone.
Tests used:
[1] = target: Rat recombinant PDE10a (rPDE10a) (Rattus norvegicus (Rat), UniProt Q9QYJ6); assay: In vitro assay PDE10a (rat recombinant PDE10a, SPA); format: biochemical; conditions: 60 nM cAMP, 60 min at rt, read-out: rPDE10a2 IC50
Description: Rat recombinant PDE10a (rPDE10a) was expressed in Sf9 cells using a recombinant rPDE10a baculovirus construct. Cells were harvested after 48 h of infection and the rPDE10a protein was purified by metal chelate chromatography on Ni-sepharose 6FF. Tested compounds were dissolved and diluted in 100% DMSO to a concentration 100 fold of the final concentration in the assay. Compound dilutions (0.4 μL) were added in 384 well plates to 20 μL of incubation buffer (50 mM Tris pH 7.8, 8.3 mM MgCl2, 1.7 mM EGTA). 10 μL of rPDE10a enzyme in incubation buffer was added and the reaction was started by addition of 10 μL substrate to a final concentration of 60 nM cAMP and 0.008 μCi ^3H-cAMP. The reaction was incubated for 60 min at rt. After incubation, the reaction was stopped with 20 μL of 17.8 mg/mL PDE SPA beads. After sedimentation of the beads during 30 min the radioactivity was measured in a Perkin Elmer Topcount scintillation counter and results were expressed as cpm. For blank values the enzyme was omitted from the reaction and replaced by incubation buffer. Control values were obtained by addition of a final concentration of 1% DMSO instead of compound.

[2] = target: Human recombinant PDE10A2 (Homo sapiens (Human), UniProt Q9Y233); assay: In vitro hPDE10a (human recombinant PDE10A2, scintillation proximity assay); format: biochemical; conditions: human recombinant PDE10A2, 60 nM cAMP, 60 min at room temperature; read-out: hPDE10a2 IC50
Sequence of Human recombinant PDE10A2 (Q9Y233 267-1055): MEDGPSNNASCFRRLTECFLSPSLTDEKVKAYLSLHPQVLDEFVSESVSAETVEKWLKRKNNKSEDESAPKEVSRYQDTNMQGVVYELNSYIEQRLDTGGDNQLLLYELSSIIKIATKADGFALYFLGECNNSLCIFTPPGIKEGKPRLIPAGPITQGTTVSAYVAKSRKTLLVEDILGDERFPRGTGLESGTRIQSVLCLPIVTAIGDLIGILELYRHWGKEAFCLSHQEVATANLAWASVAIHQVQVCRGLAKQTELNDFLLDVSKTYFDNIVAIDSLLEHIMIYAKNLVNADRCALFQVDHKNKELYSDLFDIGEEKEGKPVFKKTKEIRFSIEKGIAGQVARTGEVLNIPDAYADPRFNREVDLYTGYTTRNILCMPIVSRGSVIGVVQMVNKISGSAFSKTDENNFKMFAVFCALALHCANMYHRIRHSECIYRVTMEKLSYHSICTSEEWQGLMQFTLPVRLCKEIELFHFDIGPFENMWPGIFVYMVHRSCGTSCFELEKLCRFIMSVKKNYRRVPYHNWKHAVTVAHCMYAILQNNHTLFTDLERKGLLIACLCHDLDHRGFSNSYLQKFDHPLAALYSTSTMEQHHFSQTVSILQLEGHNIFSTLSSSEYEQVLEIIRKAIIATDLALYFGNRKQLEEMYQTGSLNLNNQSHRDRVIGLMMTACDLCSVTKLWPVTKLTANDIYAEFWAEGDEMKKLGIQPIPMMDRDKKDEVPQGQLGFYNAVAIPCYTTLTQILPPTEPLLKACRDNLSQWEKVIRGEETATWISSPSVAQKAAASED
Description: Human recombinant PDE10A2 was expressed in Sf9 cells, using a recombinant baculovirus construct containing the full length sequence containing a 6×His sequence following the start Met to allow metal affinity purification of the recombinant protein. Cells were harvested and the phosphodiesterase protein was purified by metal chelate chromatography on Ni-sepharose 6FF.
The affinity of the compounds of Formula (I) for phophodiesterases (PDE) was measured by a scintillation proximity assay (SPA). PDE Yttrium Silicate SPA beads allow PDE activity to be measured by direct binding of the primary phosphate groups of non-cyclic AMP or GMP to the beads via a complex iron chelation mechanism. The amount of bound tritiated product ([^3H]-AMP) is measured by liquid scintillation counting.
The compounds were dissolved and diluted in 100% DMSO in polystyrene plates to a concentration of 100-fold the final concentration in the assay. Human PDE10A enzyme solution (10 μL) was added to 20 μL, of incubation buffer (50 mM Tris pH 7.8, 8.3 mM MgCl2, 1.7 mM EGTA), 10 μL, substrate solution consisting of a mixture of non-tritiated and tritiated substrate (60 nM cAMP, 0.008 μCi ^3H-cAMP), and 0.4 μL, compound in 100% DMSO in a 384-well plate, and incubated for 60 min at room temperature. After incubation, the reaction was stopped with 20 μL, of stop solution, consisting of PDE SPA beads (17.8 mg beads/mL in 18 mM zinc sulphate). After sedimentation of the beads for 30 min, the radioactivity was measured in a Perkin Elmer Topcount scintillation counter and results were expressed as cpm. To measure the low control, no enzyme was added to the reaction mixture.
Data were calculated as the percentage of inhibition of total activity measured in the absence of test compound (% control).

Sequence of Rat recombinant PDE10a (rPDE10a) (Q9QYJ6 whole entry): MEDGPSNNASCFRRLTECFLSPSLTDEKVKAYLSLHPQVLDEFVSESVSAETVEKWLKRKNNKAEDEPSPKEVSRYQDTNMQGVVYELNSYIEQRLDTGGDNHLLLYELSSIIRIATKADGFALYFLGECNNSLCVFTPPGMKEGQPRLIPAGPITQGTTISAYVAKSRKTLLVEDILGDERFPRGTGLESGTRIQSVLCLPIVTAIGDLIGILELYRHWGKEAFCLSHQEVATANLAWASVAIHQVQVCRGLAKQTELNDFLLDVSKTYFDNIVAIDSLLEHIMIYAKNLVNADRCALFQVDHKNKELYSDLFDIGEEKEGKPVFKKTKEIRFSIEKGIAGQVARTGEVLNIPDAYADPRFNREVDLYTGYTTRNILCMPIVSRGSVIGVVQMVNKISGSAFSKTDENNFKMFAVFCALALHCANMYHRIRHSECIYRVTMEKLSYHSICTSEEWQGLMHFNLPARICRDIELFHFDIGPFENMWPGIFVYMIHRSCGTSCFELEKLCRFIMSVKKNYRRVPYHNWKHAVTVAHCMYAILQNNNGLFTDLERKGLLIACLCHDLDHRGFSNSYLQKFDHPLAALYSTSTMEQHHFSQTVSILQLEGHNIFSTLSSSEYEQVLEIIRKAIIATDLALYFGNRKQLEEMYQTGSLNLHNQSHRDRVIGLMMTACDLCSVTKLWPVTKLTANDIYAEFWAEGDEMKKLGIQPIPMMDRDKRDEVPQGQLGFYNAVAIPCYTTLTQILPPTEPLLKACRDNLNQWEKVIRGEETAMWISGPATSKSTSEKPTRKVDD

Compound	IC50 [1] [nM]	IC50 [2] [nM]
Cn1nc(-c2ccc(-c3cnc(N4CCOCC4)c4nc(CCc5ccc6ccccc6n5)cn34)cc2)[nH]c1=O [Cpd 33, 1-Methyl-3-[4-[8-(morpholin-4-yl)-2-[2-(quinolin-2-yl)ethyl]imidazo[1,2-a]pyrazin-5-yl]phenyl]-4,5-dihydro-1H-1,2,4-triazol-5-one]	23	21
CC(C)[C@H](NC(=O)c1ccc(-c2cnc(N3CCOCC3)c3nc(CCc4ccc5ccccc5n4)cn23)cc1)C(=O)O [Cpd 34, (S)-3-Methyl-2-(4-(8-morpholino-2-(2-(quinolin-2-yl)ethyl)imidazo[1,2-a]pyrazin-5-yl)benzamido)butanoic acid trifluoroacetic acid salt]	13	5
O=C(O)[C@@H]1CCCN1C(=O)c1ccc(-c2cnc(N3CCOCC3)c3nc(CCc4ccc5ccccc5n4)cn23)cc1 [Cpd 35, (S)-1-(4-(8-Morpholino-2-(2-(quinolin-2-yl)ethyl)imidazo[1,2-a]pyrazin-5-yl)benzoyl)pyrrolidine-2-carboxylic acid trifluoroacetic acid salt]	12	7
c1ccc2nc(CCc3cn4c(-c5ccc(Sc6cnn[nH]6)cc5)cnc(N5CCOCC5)c4n3)ccc2c1 [Cpd 36, 4-(5-(4-((1H-1,2,3-triazol-5-yl)thio)phenyl)-2-(2-(quinolin-2-yl)ethyl)imidazo[1,2-a]pyrazin-8-yl)morpholine]	23	17
O=C(O)CCNC(=O)c1ccc(-c2cnc(N3CCOCC3)c3nc(CCc4ccc5ccccc5n4)cn23)cc1 [Cpd 38, 3-(4-(8-Morpholino-2-(2-(quinolin-2-yl)ethyl)imidazo[1,2-a]pyrazin-5-yl)benzamido)propanoic acid]	7	2
O=C1NS(=O)(=O)c2ccc(-c3cnc(N4CCOCC4)c4nc(/C=C/c5ccc6ccccc6n5)cn34)cc21 [Cpd 42, (E)-5-(8-Morpholino-2-(2-(quinolin-2-yl)vinyl)imidazo[1,2-a]pyrazin-5-yl)benzo[d]isothiazol-3(2H)-one 1,1-dioxide]	2	1
CN1c2cc(-c3cnc(N4CCOCC4)c4nc(/C=C/c5ccc6ccccc6n5)cn34)ccc2NS1(=O)=O [Cpd 43, (E)-1-Methyl-6-(8-morpholino-2-(2-(quinolin-2-yl)vinyl)imidazo[1,2-a]pyrazin-5-yl)-1,3-dihydrobenzo[c][1,2,5]thiadiazole 2,2-dioxide trifluoroacetic acid salt]	7	3
CC(C)[C@H](NC(=O)c1ccc(-c2cnc(N3CCOCC3)c3nc(/C=C/c4ccc5ccccc5n4)cn23)cc1)C(=O)O [Cpd 44, (S,E)-3-Methyl-2-(4-(8-morpholino-2-(2-(quinolin-2-yl)vinyl)imidazo[1,2-a]pyrazin-5-yl)benzamido)butanoic acid trifluoroacetic acid salt]	9	14
Cn1nc(-c2ccc(-c3cnc(N4CCOCC4)c4nc(/C=C/c5ccc6ccccc6n5)cn34)cc2)[nH]c1=O [Cpd 47, (E)-2-Methyl-5-(4-(8-morpholino-2-(2-(quinolin-2-yl)vinyl)imidazo[1,2-a]pyrazin-5-yl)phenyl)-2H-1,2,4-triazol-3(4H)-one]	15	34
O=C1NC(=O)C(c2ccc(-c3cnc(N4CCOCC4)c4nc(/C=C/c5ccc6ccccc6n5)cn34)cc2)O1 (stereo not shown) [Cpd 48, (E)-5-(4-(8-Morpholino-2-(2-(quinolin-2-yl)vinyl)imidazo[1,2-a]pyrazin-5-yl)phenyl)oxazolidine-2,4-dione]	37	11
O=C1NC(=O)C(c2ccc(-c3cnc(N4CCOCC4)c4nc(/C=C/c5ccc6ccccc6n5)cn34)cc2)N1 (stereo not shown) [Cpd 57, (E)-5-(4-(8-Morpholino-2-(2-(quinolin-2-yl)vinyl)imidazo[1,2-a]pyrazin-5-yl)phenyl)imidazolidine-2,4-dione 2,2,2-trifluoroacetate]	48	46

Further lines, results first:

IC50 [1] [nM]	IC50 [2] [nM]	Compound
6	12	O=C(O)CCC(=O)Nc1ccc(-c2cnc(N3CCOCC3)c3nc(/C=C/c4ccc5ccccc5n4)cn23)cc1 [Cpd 32]
8	5	O=C(O)CCNC(=O)c1ccc(-c2cnc(N3CCOCC3)c3nc(/C=C/c4ccc5ccccc5n4)cn23)cc1 [Cpd 39, (E)-3-(4-(8-Morpholino-2-(2-(quinolin-2-yl)vinyl)imidazo[1,2-a]pyrazin-5-yl)benzamido)propanoic acid]
20	10	CS(=O)(=O)NC(=O)Nc1ccc(-c2cnc(N3CCOCC3)c3nc(CCc4ccc5ccccc5n4)cn23)cc1 [Cpd 40, N-((4-(8-Morpholino-2-(2-(quinolin-2-yl)ethyl)imidazo[1,2-a]pyrazin-5-yl)phenyl)carbamoyl)methanesulfonamide]
21	19	COCOc1c(C)cc(-c2cnc(N3CCOCC3)c3nc(/C=C/c4ccc5ccccc5n4)cn23)cc1C [Cpd 41, (E)-4-(5-(4-(methoxymethoxy)-3,5-dimethylphenyl)-2-(2-(quinolin-2-yl)vinyl)imidazo[1,2-a]pyrazin-8-yl)morpholine]
23	20	O=C(O)[C@@H]1CCCN1C(=O)c1ccc(-c2cnc(N3CCOCC3)c3nc(/C=C/c4ccc5ccccc5n4)cn23)cc1 [Cpd 45, (S,E)-1-(4-(8-Morpholino-2-(2-(quinolin-2-yl)vinyl)imidazo[1,2-a]pyrazin-5-yl)benzoyl)pyrrolidine-2-carboxylic acid trifluoroacetic acid salt]
4	7	O=C(O)CNC(=O)c1ccc(-c2cnc(N3CCOCC3)c3nc(CCc4ccc5ccccc5n4)cn23)cc1 [Cpd 46, 2-(4-(8-Morpholino-2-(2-(quinolin-2-yl)ethyl)imidazo[1,2-a]pyrazin-5-yl)benzamido)acetic acid]
98	155	Cc1cc(S(=O)(=O)NC(C)C)ccc1-c1cnc(N2CCOCC2)c2nc(/C=C/c3ccc4ccccc4n3)cn12 [Cpd 49, (E)-N-isopropyl-3-methyl-4-(8-morpholino-2-(2-(quinolin-2-yl)vinyl)imidazo[1,2-a]pyrazin-5-yl)benzenesulfonamide]
17	18	O=C(O)CNC(=O)c1ccc(-c2cnc(N3CCOCC3)c3nc(/C=C/c4ccc5ccccc5n4)cn23)cc1 [Cpd 50, (E)-2-(4-(8-Morpholino-2-(2-(quinolin-2-yl)vinyl)imidazo[1,2-a]pyrazin-5-yl)benzamido)acetic acid]
5	4	Oc1ncn(-c2ccc(-c3cnc(N4CCOCC4)c4nc(CCc5ccc6ccccc6n5)cn34)cc2)n1 [Cpd 51, 1-(4-(8-Morpholino-2-(2-(quinolin-2-yl)ethyl)imidazo[1,2-a]pyrazin-5-yl)phenyl)-1H-1,2,4-triazol-3-ol]
1	1	O=C1NS(=O)(=O)c2cc(-c3cnc(N4CCOCC4)c4nc(CCc5ccc6ccccc6n5)cn34)ccc21 [Cpd 54, 6-(8-Morpholino-2-(2-(quinolin-2-yl)ethyl)imidazo[1,2-a]pyrazin-5-yl)benzo[d]isothiazol-3(2H)-one 1,1-dioxide trifluoroacetic acid salt]
15	14	O=c1ncn(-c2ccc(-c3cnc(N4CCOCC4)c4nc(/C=C/c5ccc6ccccc6n5)cn34)cc2)[nH]1 [Cpd 56, (E)-1-(4-(8-Morpholino-2-(2-(quinolin-2-yl)vinyl)imidazo[1,2-a]pyrazin-5-yl)phenyl)-1,2-dihydro-1,2,4-triazol-3-one]
132	91	O=c1[nH]ncn1-c1ccc(-c2cnc(N3CCOCC3)c3nc(/C=C/c4ccc5ccccc5n4)cn23)cc1 [Cpd 58, (E)-4-(4-(8-morpholino-2-(2-(quinolin-2-yl)vinyl)imidazo[1,2-a]pyrazin-5-yl)phenyl)-1H-1,2,4-triazol-5(4H)-one]

Source: patent US9249163B2, “PDE10a inhibitors for the treatment of type II diabetes” (Janssen Pharmaceutica, NV, priority 2013, dated 2016)
